In BindingDB's records for patent US12384772 (Vivoryon Therapeutics, 2025):

Legend:
[1] = biological target: T1, Glutaminyl-peptide cyclotransferase (Homo sapiens, UniProt Q16769); test: Inhibition Assay (pH 6)
Protocol: (§1) 10 mM compound stock solutions were prepared in DMSO. For IC50 determination compound stocks were serially diluted (1:3) in DMSO.All measurements were performed with an EnSpire Perkin Elmer multimode reader using glutaminyl-7-amino-4-methylcoumarin (H-Gin-AMC) as substrate and recombinant pyroglutamyl aminopeptidase (pGAP) as auxiliary enzyme. Reactions were carried out at ambient temperature in black 96-well half area microplates. Each sample consisted of 1 μl test compound solution or solvent (DMSO) and 49 μl QC appropriately diluted in assay buffer (50 mM Tris/HCl, pH 8.0 or 50 mM MES buffer, pH=6.0). After a 10 min preincubation at ambient temperature the enzyme reaction was started by adding 50 μl of Gln-AMC-substrate/pGAP mixture in assay buffer. Final substrate concentrations were 50 and 200 μM for measurement at pH 8.0 or 6.0, respectively. Release of flourogenic AMC were recorded at excitation/emission wavelengths of 380/460 nm. Initial velocity of the enzyme reaction was calculated by linear regression of the first 10 data points using the Enspire Manager software. Final evaluation and calculation of IC50s were performed using GraphPad Prism software.

[2] = biological target: T1, Glutaminyl-peptide cyclotransferase; test: Inhibition Assay (pH 8.0)
Protocol: as §1

T1 sequence (Q16769 whole entry): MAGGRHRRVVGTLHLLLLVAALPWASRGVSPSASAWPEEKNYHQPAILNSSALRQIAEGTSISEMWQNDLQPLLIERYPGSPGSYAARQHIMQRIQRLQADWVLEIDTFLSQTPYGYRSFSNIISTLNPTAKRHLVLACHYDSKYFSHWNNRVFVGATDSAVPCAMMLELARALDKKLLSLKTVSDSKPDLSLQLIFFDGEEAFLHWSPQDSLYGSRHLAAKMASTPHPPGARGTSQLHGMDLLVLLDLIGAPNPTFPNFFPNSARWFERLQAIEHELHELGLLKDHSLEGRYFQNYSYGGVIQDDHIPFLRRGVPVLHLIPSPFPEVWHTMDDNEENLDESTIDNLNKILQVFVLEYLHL

CS(=O)(=NCc1ccc2[nH]cnc2c1)c1ccc(F)cc1 (configuration not stated) [US12384772, Compound 1285]
Ki [1]: 8.05 µM | Ki [2]: 5.18 µM
